The source of these data is PubChem BioAssay (NCI).

Molecules are shown by their SMILES.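 Tested at 5 concentrations; 48 h exposure; 96-well plates; endpoints linearly interpolated, else capped at highest concentration. TGI: concentration producing complete growth inhibition.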 Some results are limits rather than exact numbers.

Some test systems named below: M14 melanoma; HT29 colon; CCRF-CEM leukemia; HS 578T breast; UACC-257 melanoma; COLO 205 colon; NCI-H460 lung; SK-OV-3 ovarian; DU-145 prostate; SN12C renal.
Assay in all cases: NCI tumour cell line growth inhibition, 48 h

As to `COc1ccc(/C=C2\OC(=O)C(Cl)=C2c2ccc(OC)c(Cl)c2)cc1`, the TGI with M14 melanoma is 76.9 µM; with HT29 colon it was more than 100 µM; with CCRF-CEM leukemia it was more than 100 µM; in the assay on HS 578T breast, 73.7 µM; with UACC-257 melanoma it was more than 100 µM; in the assay on COLO 205 colon, more than 100 µM. Besides, the TGI in the assay with NCI-H460 lung was 59 µM; with SK-OV-3 ovarian it was more than 100 µM; in the assay on DU-145 prostate it was more than 100 µM.
`CSc1c(C)n([O-])c2cc(Cl)c(Cl)cc2[n+]1=O`: the TGI in the assay with M14 melanoma was 45.6 µM; with HT29 colon, 33.7 µM; in the assay on SN12C renal it was 33.3 µM; with CCRF-CEM leukemia, 4.58 µM; in the assay with HS 578T breast, more than 68.5 µM; with UACC-257 melanoma, 34.8 µM. The TGI is 41.7 µM in the assay with COLO 205 colon, more than 100 µM in the assay with NCI-H460 lung, more than 100 µM in the assay with SK-OV-3 ovarian and 30.9 µM in the assay on DU-145 prostate.
Consider `CCOC(=O)Cc1cc(=O)[nH]c(-n2[nH]c(C)c(CCO)c2=O)n1`, for which the TGI in the assay on M14 melanoma, in the assay on HT29 colon, in the assay on SN12C renal, in the assay on CCRF-CEM leukemia, in the assay with HS 578T breast and in the assay on UACC-257 melanoma was more than 100 µM each time. The TGI in the assay on COLO 205 colon, with NCI-H460 lung, with SK-OV-3 ovarian and with DU-145 prostate was more than 100 µM throughout.
As to `CC(C)N1[C@@H]2CCCC[C@H]2N(C(C)C)[P+]1=O`, the TGI in the assay with M14 melanoma, with HT29 colon, in the assay with SN12C renal, with CCRF-CEM leukemia, with HS 578T breast and with UACC-257 melanoma was more than 100 µM each time. The TGI in the assay on COLO 205 colon, in the assay on NCI-H460 lung, in the assay on SK-OV-3 ovarian and in the assay on DU-145 prostate was more than 100 µM each time.
For the compound `Cc1ccc(C)c2c1n1c(=O)n(C)c(=O)n21`, the TGI in the assay with M14 melanoma, with HT29 colon, in the assay on SN12C renal, in the assay on CCRF-CEM leukemia, with HS 578T breast and in the assay with UACC-257 melanoma was more than 100 µM each time. Also, the TGI with COLO 205 colon, with NCI-H460 lung, in the assay on SK-OV-3 ovarian and in the assay with DU-145 prostate was more than 100 µM each time.
On to `COc1ccc(/C=C(/c2ccc(OC)cc2)c2c(Cl)cc(Cl)c(/C(=C\c3ccc(OC)cc3)c3ccc(OC)cc3)c2N=Nc2ccccc2)cc1`, for which the TGI in the assay with M14 melanoma, in the assay on HT29 colon, in the assay with SN12C renal, in the assay with CCRF-CEM leukemia, in the assay with HS 578T breast and with UACC-257 melanoma was more than 100 µM each time. In addition, the TGI in the assay on COLO 205 colon, in the assay with NCI-H460 lung, in the assay on SK-OV-3 ovarian and in the assay on DU-145 prostate was more than 100 µM throughout.
On to `CCN(CC)C(=O)c1cc([N+](=O)[O-])c(=O)n2c1[nH]c1ccccc12`, for which the TGI in the assay with M14 melanoma, in the assay on HT29 colon, in the assay with SN12C renal, in the assay on CCRF-CEM leukemia, in the assay with HS 578T breast and in the assay on UACC-257 melanoma was more than 100 µM each time. Moreover, the TGI with COLO 205 colon, with NCI-H460 lung, in the assay on SK-OV-3 ovarian and with DU-145 prostate was more than 100 µM each time.
Consider `COc1ccc(/N=N/C(=NNC(=O)c2ccc(C)cc2)c2ccc(N(C)C)cc2)cc1`, for which the TGI in the assay on M14 melanoma was more than 100 µM; in the assay with HT29 colon, more than 89.8 µM; with SN12C renal, more than 100 µM; in the assay with CCRF-CEM leukemia, more than 100 µM; in the assay with HS 578T breast, more than 100 µM; with UACC-257 melanoma it was more than 91.4 µM. The TGI in the assay on COLO 205 colon was more than 85.8 µM; in the assay with NCI-H460 lung it was more than 100 µM; in the assay with SK-OV-3 ovarian it was more than 100 µM; in the assay on DU-145 prostate, more than 72.7 µM.
On to `O=C(Cn1c(=O)oc2ccc(C(=O)c3cccc(Cl)c3)cc21)c1ccccc1`, for which the TGI in the assay on M14 melanoma, in the assay with HT29 colon, in the assay on SN12C renal, in the assay on CCRF-CEM leukemia, in the assay with HS 578T breast and with UACC-257 melanoma was more than 100 µM in each case. For the same compound, the TGI with COLO 205 colon, with NCI-H460 lung, in the assay with SK-OV-3 ovarian and with DU-145 prostate was more than 100 µM in each case.
Turning to `CC1=NN(c2nc(N)nc(-c3cc4ccccc4oc3=N)n2)C(C)(C)C1`, the TGI in the assay with M14 melanoma came out at 36 µM; with HT29 colon, 40.2 µM; in the assay with SN12C renal, 43 µM; with CCRF-CEM leukemia, 48.6 µM; in the assay on HS 578T breast it was 48.1 µM; in the assay on UACC-257 melanoma it was 31.4 µM. Besides, the TGI turned out to be 31.1 µM in the assay with COLO 205 colon, 34.2 µM in the assay with NCI-H460 lung, 34.7 µM with SK-OV-3 ovarian and 53.7 µM in the assay on DU-145 prostate.
As to `CCCCCCCCCCOc1ccc(N=Nc2nnc(-c3ccc(OCCCCC)cc3)s2)cc1`, the TGI in the assay with M14 melanoma, with HT29 colon, with SN12C renal, in the assay with CCRF-CEM leukemia, with HS 578T breast and in the assay with UACC-257 melanoma was more than 100 µM throughout. For the same compound, the TGI in the assay on COLO 205 colon, with NCI-H460 lung, in the assay with SK-OV-3 ovarian and with DU-145 prostate was more than 100 µM each time.
Take `CC1=NN2CCC(=O)N=C2S1`: the TGI with M14 melanoma, with HT29 colon, with SN12C renal, in the assay on CCRF-CEM leukemia, with HS 578T breast and in the assay with UACC-257 melanoma was more than 100 µM in each case. Moreover, the TGI in the assay on COLO 205 colon, with NCI-H460 lung, in the assay on SK-OV-3 ovarian and in the assay on DU-145 prostate was more than 100 µM throughout.
Take `COc1cccc(N(CN2C(=O)CCC2OC)C(C)=O)c1` (centres undefined): the TGI in the assay on M14 melanoma, in the assay on HT29 colon, in the assay with SN12C renal, with CCRF-CEM leukemia, with HS 578T breast and in the assay on UACC-257 melanoma was more than 100 µM each time. The TGI with COLO 205 colon, in the assay with NCI-H460 lung, in the assay with SK-OV-3 ovarian and with DU-145 prostate was more than 100 µM in each case.
